# From ChEMBL document CHEMBL3045306, “Ultrasound-promoted synthesis, biological evaluation and molecular docking of novel 7-(2-chloroquinolin-4-yloxy)-4-methyl-2H-chromen-2-one derivatives” (2013)
# Key:
# Type in all cases: functional
# [1] = tested on: Radical scavenging activity; experiment: Antioxidant activity assessed as inhibition of DPPH radical formation at 1000 ug after 30 mis UV-Vis spectrophotometric analysis
# [2] = tested on: Radical scavenging activity; experiment: Antioxidant activity assessed as inhibition of DPPH radical formation at 500 ug after 30 mis UV-Vis spectrophotometric analysis
# [3] = tested on: Radical scavenging activity; experiment: Antioxidant activity assessed as inhibition of DPPH radical formation at 100 ug after 30 mis UV-Vis spectrophotometric analysis
# [4] = tested on: Radical scavenging activity; experiment: Antioxidant activity assessed as inhibition of DPPH radical formation at 50 ug after 30 mis UV-Vis spectrophotometric analysis
# Meloidogyne = experiment: Nematicidal activity against Meloidogyne litoralis assessed as growth inhibition
# Escherichia coli = experiment: Antibacterial activity against Escherichia coli assessed as growth inhibition
# Staphylococcus aureus = experiment: Antibacterial activity against Staphylococcus aureus assessed as growth inhibition
# Pseudomonas aeruginosa = experiment: Antibacterial activity against Pseudomonas aeruginosa assessed as growth inhibition
# Bacillus subtilis = experiment: Antibacterial activity against Bacillus subtilis assessed as growth inhibition
Compound,MIC (Escherichia coli) [µg/mL],MIC (Staphylococcus aureus) [µg/mL],MIC (Pseudomonas aeruginosa) [µg/mL],inhibition [1] [%],inhibition [2] [%],inhibition [3] [%],inhibition [4] [%],MIC (Meloidogyne) [µg/mL],MIC (Bacillus subtilis) [µg/mL]
Cc1cc(=O)oc2cc(Oc3cc(Cl)nc4c(C)cccc34)ccc12,6.25,–,–,68,45,14,12,100,–
CN[C@@H]1[C@H](O[C@H]2[C@H](O[C@H]3[C@H](O)[C@@H](O)[C@H](N=C(N)N)[C@@H](O)[C@@H]3N=C(N)N)O[C@@H](C)[C@]2(O)C=O)O[C@@H](CO)[C@H](O)[C@H]1O [STREPTOMYCIN],6.25,25,12.5,–,–,–,–,6.25,12.5
Cc1ccc2nc(Cl)cc(Oc3ccc4c(C)cc(=O)oc4c3)c2c1,12.5,12.5,100,69,57,20,19,–,–
Cc1cc(C(C)(C)C)c(O)c(C(C)(C)C)c1,–,–,–,98,96,94,93,–,–

# Now from value to molecule, other results behind:
MIC (Escherichia coli) [µg/mL],MIC (Staphylococcus aureus) [µg/mL],MIC (Pseudomonas aeruginosa) [µg/mL],Compound,inhibition [1] [%],inhibition [2] [%],inhibition [3] [%],inhibition [4] [%],MIC (Meloidogyne) [µg/mL],MIC (Bacillus subtilis) [µg/mL]
6.25,50,6.25,Cc1cc(=O)oc2cc(Oc3cc(Cl)nc4c3ccc3ccccc34)ccc12,67,40,15,14,–,–
–,–,12.5,Cc1ccc2c(Oc3ccc4c(C)cc(=O)oc4c3)cc(Cl)nc2c1,65,35,11,10,–,–
100,50,12.5,Cc1cc(=O)oc2cc(Oc3cc(Cl)nc4ccccc34)ccc12,78,53,23,21,100,–
–,–,50,Cc1cc(=O)oc2cc(Oc3cc(Cl)nc4ccc(Br)cc34)ccc12,76,54,26,24,6.25,–
6.25,–,6.25,COc1cccc2c(Oc3ccc4c(C)cc(=O)oc4c3)cc(Cl)nc12,69,38,11,8,–,100
